# Measurements taken from US5723465A, “Inhibitors for cell adhesion and cellular infiltration” (Kowa Co., Ltd., priority 1995, dated 1998).
# Read-outs that look alike come from different tables or passages of the source.
# Columns and labels:
# [1] = tested on: adhesion of U937 cells to human umbilical vein endothelial cells (HUVEC); experiment: Cell adhesion inhibitory effect: adhesion of U937 cells to IL-1β- or TNFα-stimulated HUVEC; format: cell-based; conditions: 0.75 h, 45 minutes adhesion at room temperature
# Procedure: The test was performed with reference to a method described by Ross et al (J. Biol. Chem., 267, 8537-8543 (1992)). Briefly, endothelial cells derived from the human umbilical code vein (HUVEC) were cultured in a 48-well plate until they became confluent. Subsequently, IL-1β or TNFα was added. Five hours after the addition, U937 cells which are derived from human monocytes/histiocytes and FITC-labeled with PKH2 (Dainippon Seiyaku) were added to each well in an amount of 3×10^5 cells per well. After being allowed to stand for 45 minutes at room temperature, U937 cells which had not been adhered to were washed off, and the remaining cells were lysed using 1% Triton X-100. Fluorescent intensity was measured (Exi. 494 nm, Emi. 504 nm). The HUVEC cells were cultured in EGM-UV (Kurabo Industries Ltd.), and U937 cells were cultured in RPMI1640 plus 10% FCS. Each test drug (compound) was added to HUVEC simultaneously with the addition of IL-1β or TNFα, or to U937 cells 24 hours before the cell adhesion test, to thereby study the effect of the compound. The inhibitory activity was determined by the following equation: […]
# (the number of drug-free U937 cells adhered to drug-free endothelial cells that have been stimulated with IL-1β or TNFα)--(the number of drug-free U937 cells adhered to drug-free endothelial cells that have not been stimulated with IL-1β or TNFα)=100%
# [2] = tested on: mouse type II collagen arthritis; experiment: Action on mouse type II collagen arthritis; format: in vivo, mouse (DBA/1 male); conditions: 30 mg/kg intraperitoneally once daily, 10 times
# Procedure: The test was performed in accordance with a method described by Ranges et al. (J. Exp. Med., 162, 1105-1110 (1985)). To each of DBA/1 male mice (6-7 weeks old), 100 μg of type II collagen from bovine suspended in Freund's complete adjuvant was subcutaneously injected at the root of its tail. Twenty one days later, the mice was given a booster injection in a similar manner. The drug was intraperitoneally administered to each mouse once every day starting from 2 days prior to the booster injection until 7 days after the booster injection (a total of 10 times). The severity of arthritis was evaluated by measuring the thickness of the front foot pads. In addition, antibody titers (IgG+IgM) against type II collagen in serum were determined by ELISA.
# [3] = tested on: lymphocyte infiltration (CD3 positive cells) in mouse contact dermatitis; experiment: Lymphocyte infiltration inhibitory action in mouse contact dermatitis; format: in vivo, mouse (ddy male); conditions: 6 successive days before induction, 24 h after picryl chloride; for Ear weight (difference in weight of both ears): control 4.9 ± 0.7; for Count of CD3 positive cells: control 10.8 ± 1.3
# Procedure: In accordance with a method described by Asherson et al. (Immunology, 15, 405-416 (1968)), action of the compound on lymphocyte infiltration in mouse contact dermatitis was investigated. Groups of ddy male mice that had been sensitized with picryl chloride, each group consisting of 10 animals (body weight: 28-32 g), were provided for the test. Test compound 2 was intraperitoneally administered to each animal for successive 6 days before induction took place (1 or 10 mg/kg). A 1% solution of picryl chloride-olive oil (0.02 ml) was applied to an ear of each animal. Twenty-four hours later, both ears were punched (7 mm.phi.), to thereby compute the difference in weight. The ears were then embedded in paraffin, frozen, and cut in a vertical direction with respect to the ear face to prepare thin slices each having a thickness of 4 μm. CD3 positive cells were immunostained and counted.
# [4] = tested on: infiltration of trachea by eosinocytes; experiment: Inhibition of eosinocyte infiltration in a guinea pig asthma model; format: in vivo, guinea pig (Hartley male); conditions: 6 successive days plus 2 hours after challenge, 24 h after, control 204.5 ± 15.3, blank 67.7 ± 7.2
# Procedure: In accordance with a method described by Terashi (Allergy, 37, 980-991 (1988)), groups of Hartley male guinea pigs, each group consisting of 4-7 animals (body weight: about 300 g), were exposed to chicken egg albumin (10 mg/ml) by way of inhalation using a ultrasonic nebulizer for 10 minutes a day for successive 9 days, to thereby create a sensitized state of the animals. From the following day, test compound 2 was intraperitoneally administered to each animal for successive 6 days (10 or 30 mg/kg). On day 7, metopyrone (10 mg/kg) and chlorphenylamine (10 mg/kg) were intraperitoneally administered to each animal. Thirty minutes later, each animal was exposed to chicken egg albumin (10 mg/ml) for 10 minutes by way of inhalation. In addition, 2 hours thereafter, test compound 2 was intraperitoneally administered to each animal. Twenty-four hours later, each animal was exsanguinated to death, and its trachea was removed. The trachea was fixed with formalin and embedded in paraffin, so as to prepare thin slice samples. The samples were subjected to luna staining, and eosinocytes that infiltrated were counted.
# [5] = tested on: leukocyte infiltration in rat carrageenin pleurisy; experiment: Leukocyte infiltration inhibitory action in rat carrageenin pleurisy; format: in vivo; conditions: 2 successive days, 16 h after carrageenin; for Count of infiltrated cells: control 2.37 ± 0.06; for Pleural fluid volume: control 3.3 ± 0.3
# Procedure: In accordance with a method described by Kikuchi et al. (Japan J. Pharmacol., 39, 467-473 (1985)), action of the compound on leukocyte infiltration in rat carrageenin pleurisy was investigated. Groups of SD male […], each group consisting of 6 animals (7 weeks old), were provided for the test. Test compound 2 was intraperitoneally administered to each animal for successive 2 days (10 or 30 mg/kg). Two hours after the final administration, a 2% (w/v) carrageenin solution (0.1 ml) was intrathoracically administered. Sixteen hours later, each animal was exsanguinated to death, and pleural fluid was collected. The volume of the collected pleural fluid was measured, and cells that infiltrated and present in the pleural fluid were counted.
# [6] = IL-1β-stimulated HUVEC, read-out: Cell Adhesion (IC50), IL-1β Stimulation
# [7] = TNFα-stimulated HUVEC, read-out: Cell Adhesion (IC50), TNFα Stimulation
# [8] = 10 mg/kg intraperitoneally, p <0.05
# [9] = 30 mg/kg intraperitoneally, p <0.01
structure (smiles),measurement,setting,value
COc1cc(/C=C\CCCN2CCCN(CCC/C=C\c3cc(OC)c(OC)c(OC)c3)CC2)cc(OC)c1OC [compound 1],IC50,[1]; [6],9.7 µM
same,IC50,[1]; [7],8 µM
COc1ccc(/C=C/CCCN2CCN(CCC/C=C/c3ccc(OC)cc3)CC2)cc1 [compound 4],IC50,[1]; [6],11.1 µM
same,IC50,[1]; [7],9.4 µM
COc1ccccc1/C=C/CN1CCN(C/C=C/c2ccccc2OC)CC1 [compound 3],IC50,[1]; [6],3.4 µM
same,IC50,[1]; [7],12.9 µM
"COc1cc(/C=C/CCCN2CCCN(CCC/C=C/c3cc(OC)c(OC)c(OC)c3)CC2)cc(OC)c1OC [Test Compound 2, N,N'-bis-((E)-5-(3,4,5-trimethoxyphenyl)-4-pentenyl)homopiperazine.2HCl]","Thickness of front foot pad, after 30 days","[2]; after 30 days, control 421.3 ± 13.1, blank 361.0 ± 4.2, p <0.05",384.8 ± 6.9 × 10^-2 mm
same,"Antibody titer against collagen (IgG + IgM), after 33 days","[2]; serum, ELISA, after 33 days, control 1.00 ± 0.13, blank 0 ± 0.00, p <0.01",0.43 ± 0.10 percentage with respect to the
same,Ear weight (difference in weight of both ears),[3]; 1 mg/kg intraperitoneally,4.5 ± 0.8 mg/7 mm.phi.
same,Count of CD3 positive cells,"[3]; 1 mg/kg intraperitoneally, p <0.05",7.8 ± 0.4 cells/mm
same,Ear weight (difference in weight of both ears),[3]; [8],2.9 ± 0.6 mg/7 mm.phi.
same,Count of CD3 positive cells,"[3]; 10 mg/kg intraperitoneally, p <0.01",4.2 ± 0.7 cells/mm
same,Infiltration of trachea by eosinocytes,[4]; [8],171.0 ± 6.5 cells/mm
same,Infiltration of trachea by eosinocytes,[4]; [9],122.2 ± 7.0 cells/mm
same,Count of infiltrated cells,[5]; 10 mg/kg intraperitoneally,1.97 ± 0.05 × 10^8
same,Pleural fluid volume,[5]; 10 mg/kg intraperitoneally,2.5 ± 0.3 mL
same,Count of infiltrated cells,[5]; [9],1.68 ± 0.22 × 10^8
same,Pleural fluid volume,"[5]; 30 mg/kg intraperitoneally, p <0.05",2.5 ± 0.3 mL
COc1cc(/C=C/CCCN2CCCN(CCC/C=C/c3cc(OC)c(OC)c(OC)c3)CC2)cc(OC)c1OC [compound 2],IC50,[1]; [6],9 µM
same,IC50,[1]; [7],9.5 µM
